The target of assay [1] is T1, Gal-8C (Homo sapiens, UniProt O00214).
T1 construct: than to the C-terminal domain (Gal-8C)
T1 sequence (O00214 187-317 limits assumed): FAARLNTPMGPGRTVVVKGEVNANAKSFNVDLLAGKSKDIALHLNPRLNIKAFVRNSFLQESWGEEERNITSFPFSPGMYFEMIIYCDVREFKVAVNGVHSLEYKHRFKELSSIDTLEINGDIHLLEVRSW
Further details: method as in PMID 34225180. The following applies: cited from earlier work.

Assay [2] has as its target T2, Gal-3 (Homo sapiens, UniProt P17931).
T2 construct: made in house
The following applies: cited from earlier work; for Gal-3 selectivity ratio Kd (Gal-3)/Kd (Gal-8N): selectivity for Gal-8N over Gal-3 (fold).

For assay [3], the target named is T3, Gal-8N (Homo sapiens, UniProt O00214).
T3 construct: consisting of residues 4-158 was produced by Lund Protein Production Platform; made in house; host or cells: E. coli TUNER(DE3)
T3 sequence (O00214 4-158): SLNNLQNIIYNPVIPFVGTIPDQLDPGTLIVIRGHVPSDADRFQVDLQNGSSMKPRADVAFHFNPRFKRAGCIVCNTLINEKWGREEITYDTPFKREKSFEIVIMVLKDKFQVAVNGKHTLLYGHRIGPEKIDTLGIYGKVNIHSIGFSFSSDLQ
The assay can be described thus: isothermal titration calorimetry (ITC), binding to Gal-8N. The following applies: for ΔΔH compared to 1: difference vs compound 1. Here is the method: Isothermal titration calorimetry (ITC) experiments were conducted using a Microcal PEAQ-ITC isothermal titration calorimeter (Malvern Instruments, Malvern Panalytical Ltd) at 25 °C. Lyophilized Gal-8N was first dissolved in PBS buffer (with a 4.3 mM β-mercaptoethanol) with a pH = 7.4 and Gal-8N was dialyzed with a 0.5–3 mL Slide-A-Lyzer™ 7k MWCO Dialysis Cassette in the same buffer. To remove residual lactose, Gal-8N was additionally purified using Superdex 75 Increase column equilibrated in PBS with 5% DMSO. Fractions containing Gal-8N were collected and concentrated with Amicon® Ultra-0.5 Centrifugal Filter Device with a 10k MWCO to a final concentration of about 40 µM. A280 was measured using the NanoDrop^TM One Microvolume UV-VIS spectrophotometer and the concentration of Gal-8N was calculated (ε = 11460 L mol^−1 cm^−1 was used). 16 mM stock solutions of 1, 11, and 29 were prepared in pure DMSO. The 16 mM stock solutions were diluted to 800 μM with pure PBS and then to the final concentration of 560 μM (the final content of DMSO was 5%). Titrations were performed with 19 injections of Gal-8N inhibitors 1, 11 (560 μM) and 29 (800 μM) with a following settings: reference power = 10.0 µcal s^−1, feedback = high, stir speed = 750, Initial delay = 100 s, first spacing = 200 s, the other spacings = 150 s.
Raw thermograms were exported and integrated with the NITPIC (version 2.0.7)[43] and then analyzed with SEDPHAT (version 15.2)[44],[45]. Parameter and error analysis were performed using the Monte-Carlo approach for nonlinear regression with 1000 iterations as implemented in SEDPHAT.

For assay [4], the target named is T4, Gal-8N (galectin-8 N-terminal domain) (Homo sapiens, UniProt O00214).
T4 construct: made in house
T4 sequence (O00214 19-152 limits assumed): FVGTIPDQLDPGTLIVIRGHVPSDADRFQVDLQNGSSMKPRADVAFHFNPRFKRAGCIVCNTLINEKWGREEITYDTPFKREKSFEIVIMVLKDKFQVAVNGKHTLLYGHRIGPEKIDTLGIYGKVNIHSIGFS
The following applies: cited from earlier work.

Assay [5] has as its target T5, Gal-1 (Homo sapiens, UniProt P09382).
T5 construct: made in house
Further details: method as in PMID 34225180. The following applies: cited from earlier work.

Assay [6] concerns the target T3, Gal-8N. Briefly: ligand efficiency (LE) and ligand-lipophilicity efficiency (LLE) calculations. The following applies: for LLE: from Gal-8N Kd and clogP; for LE: from Gal-8N Kd and number of non-hydrogen atoms.
Assay [7] concerns the target T1, Gal-8C. Briefly: competitive fluorescence polarisation assay, Gal-8C. The assay is classed as binding. The following applies: for Kd: competitive FP, mean ± SEM of n = 4 to 8; for Gal-8C selectivity ratio Kd (Gal-8C)/Kd (Gal-8N): ratio of FP Kd values.
Assay [8] addresses T2, Gal-3. The assay can be described thus: competitive fluorescence polarisation assay, Gal-3. The following applies: for Kd: competitive FP, mean ± SEM of n = 4 to 8, 20 °C, read-out: Kd Gal-3; for Gal-3 selectivity ratio Kd (Gal-3)/Kd (Gal-8N): ratio of FP Kd values. The assay is classed as binding. Here is the method:
(§1) Human galectins-1, -3, and -8N were expressed and purified as described previously[8],[23],[24]. Competitive fluorescence polarization assays were performed with a PHERAstar FS plate reader with software PHERAstar Mars version 2.10 R3 (BMG, Offenburg, Germany) and Tecan Spark multimode microplate reader (Tecan Trading AG, Switzerland), where a fluorescence anisotropy of fluorescent-tagged probes was measured by excitation at 485 nm and emission at 520 nm. Experiments were performed at 20 °C with Gal-1 at 0.5 µM, Gal-3 at 0.2 µM, and Gal-8N at 0.4 µM. Fluorescent probes used for experiments were 3,3′-dideoxy-3-[4-(fluorescein-5-yl-carbonylaminomethyl)-1H-1,2,3-triazol-1-yl]-3′-(3,5-di-methoxybenzamido)-1,1′-sulfanediyl-di-β-D-galactopyranoside at 0.02 µM for Gal-1 and -3 and 2-(fluorescein-5-yl-carbonylamino)ethyl β-D-galactopyranosyl(1-4)-2-acetamido-2-deoxy-β-D-glucopyranosyl(1–3)-β-D-galactopyranosyl(1–4)-β-D-glucopyranoside at 0.1 µM for Gal-8N in each well. Compounds were first dissolved in pure DMSO at 20 mM concentration and later diluted in 5% DMSO in PBS solution to 5-7 different concentrations. Each concentration was tested in duplicate. The highest inhibitor concentrations tested were 1.5 mM. The average values of Kd and SEM (standard error mean) were calculated from 4 to 8 duplicate measurements, showing 10–90% inhibition.

The target in assay [9] is T5, Gal-1. Briefly: competitive fluorescence polarisation assay, Gal-1. The following applies: for Kd: competitive FP, mean ± SEM of n = 4 to 8, 20 °C; for Gal-1 selectivity ratio Kd (Gal-1)/Kd (Gal-8N): ratio of FP Kd values. The assay is classed as binding. Here is the method: as §1
For assay [10], the target named is T4, Gal-8N (galectin-8 N-terminal domain). Briefly: competitive fluorescence polarisation assay, Gal-8N. It is filed as binding. The following applies: competitive FP, mean ± SEM of n = 4 to 8, 20 °C; read-out: Kd Gal-8N. Here is the method: as §1
Setting [11] is: 25 °C, PBS buffer, 1:1 binding model, n = 2.

The values that follow come from PMC11850616, “Nanomolar inhibitor of the galectin-8 N-terminal domain binds via a non-canonical cation-π interaction” (Communications Chemistry, 2025).

“And” between values parts separate entries of the source, which are not always exact repeats. Identical values can stand only once. Like-named read-outs stand apart in the source and are kept apart here.

T2 sequence (P17931 whole entry): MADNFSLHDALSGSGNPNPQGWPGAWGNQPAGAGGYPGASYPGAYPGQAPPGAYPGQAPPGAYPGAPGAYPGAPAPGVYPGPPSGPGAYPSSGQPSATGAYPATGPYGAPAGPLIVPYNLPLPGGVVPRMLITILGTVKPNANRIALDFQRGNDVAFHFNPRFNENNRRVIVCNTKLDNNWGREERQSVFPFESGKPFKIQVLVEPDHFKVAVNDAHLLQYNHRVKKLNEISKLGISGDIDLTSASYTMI
T5 sequence (P09382 whole entry): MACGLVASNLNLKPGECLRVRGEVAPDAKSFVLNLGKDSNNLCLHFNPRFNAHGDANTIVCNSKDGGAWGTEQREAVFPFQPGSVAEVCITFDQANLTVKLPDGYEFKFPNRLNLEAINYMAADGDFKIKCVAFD

As to `Cn1c(CO[C@@H]2[C@@H](O)[C@@H](Sc3ccc(Cl)c(Cl)c3)O[C@H](CO)[C@@H]2O)nc2ccc(C(=O)O)cc21` [Compound 1, reference compound], the “Gal-8C selectivity ratio Kd (Gal-8C)/Kd (Gal-8N)” value (“Gal-8C selectivity ratio Kd” below) in [1] is given as 422. Further, the “Gal-3 selectivity ratio Kd (Gal-3)/Kd (Gal-8N)” value (“Gal-3 selectivity ratio Kd” for short) in assay [2] is given as 2.8. Further, in assay [3] (setting [11]), the “-TΔS” value was 3.35 kcal/mol and 3.35 ± 3.11 kcal/mol; the Kd stood at 5 µM; the ΔG was -7.22 kcal/mol and -7.22 ± 0.14 kcal/mol; the ΔH is -10.5 kcal/mol and -10.5 ± 2.87 kcal/mol. In assay [3] (TRIS buffer), the “-TΔS” value stood at 4.54 kcal/mol, the Kd is 4.5 µM, the ΔG is -7.34 kcal/mol and the ΔH was -12 kcal/mol. The “fold more potent than D-galactose (Gal-8N)” value in assay [4] is ~ 5000 fold. Besides, the “Gal-1 selectivity ratio Kd (Gal-1)/Kd (Gal-8N)” value (“Gal-1 selectivity ratio Kd” below) in assay [5] was 72.
With `O=C(O)[C@H](CC1CCCCC1)O[C@@H]1[C@@H](O)[C@@H](Sc2ccc(Cl)c(Cl)c2)O[C@H](CO)[C@@H]1O` [Compound 2], the Kd was 82 µM in [2] (Fig. 1, earlier inhibitors, read-out: Kd: galectin-3) and 12 µM in [4]. The “selectivity over Gal-3” value in assay [2] (Gal-8N over Gal-3) was 6.8 fold.
With `Cn1c(CO[C@@H]2C=CO[C@H](CO)[C@@H]2O)nc2ccc(C(=O)O)cc21` [Compound 3], the “Gal-3 selectivity ratio Kd” value in [2] is 14.
For the molecule `C#CCO[C@@H]1[C@@H](OCc2nc3ccc(C(=O)O)cc3n2C)[C@@H](O)[C@@H](CO)O[C@@H]1Sc1ccc(Cl)c(Cl)c1` [Compound 11], in [6], the LLE is reported as 2.01 and the LE was 0.226 (kcal/mol)/heavy atom. Further, in assay [7], the Kd is 390 ± 14 µM and the “Gal-8C selectivity ratio Kd” value came to 488. Also, in assay [8], the Kd was 1.4 ± 0.2 µM and the “Gal-3 selectivity ratio Kd” value is recorded as 1.75. This molecule also yielded a Kd in [9] of 10 ± 0.71 µM. Further, the Kd in [10] was determined as 0.8 ± 0.09 µM. Besides, in assay [3] (setting [11]), the “-TΔS” value was 6.69 ± 2.2 kcal/mol and 6.69 kcal/mol; the Kd worked out at 1.3 µM; the ΔG was -8.01 ± 0.12 kcal/mol and -8.01 kcal/mol; the ΔH was -14.6 ± 1.9 kcal/mol and -14.6 kcal/mol. In assay [3], the “ΔΔH compared to 1” value is reported as “–17 kJ mol^−1”. For the same molecule, the “ΔΔH compared to 29” value in assay [3] (difference vs compound 29) is “–4 kJ mol^−1”.
Consider `Cn1c(CO[C@H]2[C@@H](O)[C@@H](CO)O[C@H](Sc3ccc(Cl)c(Cl)c3)[C@@H]2OCC2CCC2)nc2ccc(C(=O)O)cc21` [Compound 25], for which, in assay [6], the LLE is given as 0.593 and the LE is 0.204 (kcal/mol)/heavy atom. Further, in assay [7], the Kd was 383 ± 21 µM and the “Gal-8C selectivity ratio Kd” value stood at 239. Besides, in assay [8], the Kd is 9.4 ± 1.9 µM and the “Gal-3 selectivity ratio Kd” value is 5.9. In [9], the Kd was found to be 16 ± 0.5 µM and the “Gal-1 selectivity ratio Kd” value came to 10. Further, in assay [10], the Kd came to 1.6 ± 0.07 µM.
`Cn1c(CO[C@H]2[C@@H](O)[C@@H](CO)O[C@H](Sc3ccc(Cl)c(Cl)c3)[C@@H]2OCC(=O)O)nc2ccc(C(=O)O)cc21` [Compound 29]: in assay [6], the LLE is reported as 2.84 and the LE was 0.227 (kcal/mol)/heavy atom. Further, in [7], the Kd was found to be 449 ± 39 µM and the “Gal-8C selectivity ratio Kd” value is recorded as 898. For the same molecule, in assay [8], the Kd is 3.3 ± 0.2 µM and the “Gal-3 selectivity ratio Kd” value is recorded as 6.6. Further, in [9], the Kd was determined as 49 ± 3.6 µM and the “Gal-1 selectivity ratio Kd” value is listed as 98. In addition, in assay [10], the Kd was 0.5 ± 0.03 µM. In addition, in assay [3] (setting [11]), the “-TΔS” value is 5.26 ± 0.72 kcal/mol and 5.26 kcal/mol; the Kd was found to be 0.6 µM; the ΔG was -8.44 ± 0.096 kcal/mol and -8.44 kcal/mol; the ΔH was -13.6 ± 0.72 kcal/mol and -13.6 kcal/mol. For the same molecule, the “ΔΔH compared to 1” value in assay [3] was “–13 kJ mol^−1”.
As to `CO[C@@H]1[C@@H](OCc2nc3ccc(C(=O)O)cc3n2C)[C@@H](O)[C@@H](CO)O[C@@H]1Sc1ccc(Cl)c(Cl)c1` [Compound 32], in assay [6], the LLE was 2.08 and the LE was 0.231 (kcal/mol)/heavy atom. Further, in [7], the Kd turned out to be 358 ± 29 µM and the “Gal-8C selectivity ratio Kd” value is 275. For the same molecule, in [8], the Kd stood at 4.5 ± 0.7 µM and the “Gal-3 selectivity ratio Kd” value was 3.5. In addition, in assay [9], the Kd stood at 16 ± 0.8 µM and the “Gal-1 selectivity ratio Kd” value came to 12.3. Besides, the Kd in [10] came out at 1.3 ± 0.05 µM.
In the case of `O=C[C@H](O)[C@@H](O)[C@@H](O)[C@H](O)CO` [D-galactose], the Kd in assay [2] (read-out: affinity for Gal-3) is around 5000 µM.
